The values below come from ChEMBL document CHEMBL1201862, “PubChem BioAssay data set” (2004).

Among the test systems are CCRF-CEM; SF-268; HCT-116; HT-29; A549; DU-145; Malme-3M; OVCAR-4; HCC 2998; T47D; RXF 393; NCI-H23; KM12; EKVX; K562; SK-MEL-2; NCI-H460; UACC-62; CAKI-1; BT-549.
What all share (assay): growth of human tumour cells (NCI), 48 h

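How tested: cells in 96-well plates exposed to compound for 48 hours at five concentrations. Abbreviation: GI50, concentration required for 50% inhibition of growth.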 The source made the active and inactive calls. Cut-off read from the data, not from the text of the source: active = GI50 up to about 1.1 µM and inactive = higher. Bounds are passed on as bounds.

Turning to `COc1ccc(NC2C(=O)C3(C)CCC2C3(C)C)cc1` (stereo not given), the GI50 in the assay with CCRF-CEM was > 100 µM (inactive); in the assay with SF-268, > 100 µM (inactive); in the assay on HCT-116, > 100 µM (inactive); in the assay on HT-29 it was 40.4 µM (inactive); with A549, > 100 µM (inactive); with DU-145 it was > 100 µM (inactive). The GI50 was > 100 µM (inactive) in the assay with Malme-3M; 72.9 µM (inactive) in the assay on OVCAR-4; > 100 µM (inactive) in the assay on HCC 2998; > 100 µM (inactive) with T47D; > 100 µM (inactive) in the assay on RXF 393; > 100 µM (inactive) in the assay with NCI-H23. Also, the GI50 in the assay with KM12 was > 100 µM (inactive); in the assay with EKVX, > 100 µM (inactive); in the assay with K562 it was 63.7 µM (inactive); in the assay with SK-MEL-2, > 100 µM (inactive); with NCI-H460, > 100 µM (inactive); in the assay on UACC-62, > 100 µM (inactive). For the same compound, the GI50 was > 100 µM (inactive) in the assay on CAKI-1 and 69 µM (inactive) in the assay with BT-549.
Regarding `c1ccc2c(c1)c1c3c(c4c(n32)=NCCN4)CCC1`, the GI50 in the assay on CCRF-CEM is 53.1 µM (inactive); with SF-268, 31.6 µM (inactive); in the assay with HCT-116 it was 30.5 µM (inactive); with HT-29, 20.8 µM (inactive); in the assay with A549, 48.5 µM (inactive); in the assay on DU-145 it was 55.3 µM (inactive). The GI50 in the assay with Malme-3M was 31.6 µM (inactive); with OVCAR-4, 42.5 µM (inactive); in the assay on HCC 2998, 33.6 µM (inactive); in the assay on T47D it was 20.7 µM (inactive); in the assay with RXF 393 it was 17.9 µM (inactive); in the assay on NCI-H23 it was 31.6 µM (inactive). For the same compound, the GI50 in the assay on KM12 is 27 µM (inactive); in the assay with EKVX, 20.9 µM (inactive); in the assay with K562, 27.6 µM (inactive); in the assay with SK-MEL-2 it was 23.3 µM (inactive); with NCI-H460 it was 34.7 µM (inactive); in the assay on UACC-62, 30.1 µM (inactive). Besides, the figures for the GI50 in the assay on CAKI-1 and in the assay with BT-549 were 40.8 µM (inactive) and 32.1 µM (inactive), respectively.
Take `COc1ccc(C(=O)/C=C/c2ccc(O)c(O)c2F)c(OC)c1`: the GI50 is 0.44 µM (active) in the assay on CCRF-CEM; 2.99 µM (inactive) in the assay on SF-268; 4.02 µM (inactive) in the assay on HCT-116; 8.97 µM (inactive) in the assay on HT-29; 11 µM (inactive) with A549; 3.44 µM (inactive) with DU-145. In addition, the GI50 was 7.64 µM (inactive) in the assay on Malme-3M; 4.09 µM (inactive) in the assay on OVCAR-4; 4.07 µM (inactive) in the assay with HCC 2998; 0.649 µM (active) in the assay with T47D; 4.35 µM (inactive) with RXF 393; 2.43 µM (inactive) with NCI-H23. Besides, the GI50 was 4.99 µM (inactive) with KM12; 9.08 µM (inactive) with EKVX; 2.56 µM (inactive) with K562; 3.05 µM (inactive) in the assay with SK-MEL-2; 2.75 µM (inactive) in the assay on NCI-H460; 7.69 µM (inactive) with UACC-62. For the same compound, the GI50 in the assay with CAKI-1 is 3.24 µM (inactive); in the assay on BT-549, 5.38 µM (inactive).
Take `c1ccc2c(c1)NC1(N3CCCCC3)CCCCC21` (stereo not given): the GI50 in the assay on CCRF-CEM was 32.4 µM (inactive); with SF-268 it was 52.5 µM (inactive); in the assay on HCT-116, 37.9 µM (inactive); in the assay on HT-29 it was 39.4 µM (inactive); in the assay on A549, 30.5 µM (inactive); with DU-145 it was 57.9 µM (inactive). Moreover, the GI50 is 58.2 µM (inactive) in the assay with Malme-3M; 56.4 µM (inactive) in the assay with OVCAR-4; 76.4 µM (inactive) in the assay with HCC 2998; 20.9 µM (inactive) with T47D; 9.16 µM (inactive) with RXF 393; 50.5 µM (inactive) with NCI-H23. Moreover, the GI50 in the assay with KM12 is 32.3 µM (inactive); with EKVX, 25.5 µM (inactive); in the assay on K562, 38.8 µM (inactive); with SK-MEL-2, 49.3 µM (inactive); in the assay with NCI-H460 it was 50.6 µM (inactive); with UACC-62, 48.9 µM (inactive). For the same compound, the figures for the GI50 in the assay on CAKI-1 and with BT-549 were 55.6 µM (inactive) and 53 µM (inactive), respectively.
For the compound `O=C(c1ccccc1)C(C(=O)c1ccccc1)c1nc2ccccc2sc1=O`, the GI50 with CCRF-CEM was 6.24 µM (inactive); with SF-268, > 25 µM (inactive); in the assay on HCT-116, 12 µM (inactive); with HT-29, 17 µM (inactive); in the assay on A549, 8.91 µM (inactive); in the assay with DU-145, > 25 µM (inactive). Further, the GI50 in the assay with Malme-3M is 9.53 µM (inactive); with OVCAR-4 it was 9.71 µM (inactive); with HCC 2998 it was 23.7 µM (inactive); in the assay with T47D it was > 25 µM (inactive); in the assay on RXF 393 it was > 25 µM (inactive); with NCI-H23, 16.6 µM (inactive). For the same compound, the GI50 is 12.6 µM (inactive) with KM12; 16.1 µM (inactive) with EKVX; 12 µM (inactive) with K562; 13.5 µM (inactive) in the assay on SK-MEL-2; 11.4 µM (inactive) in the assay with NCI-H460; 7.11 µM (inactive) in the assay with UACC-62. In addition, the GI50 with CAKI-1 is 13.1 µM (inactive); in the assay on BT-549 it was 5.92 µM (inactive).
Turning to `Cc1ccc(S(=O)(=O)N/N=C2/CCCOC2)cc1`, the GI50 in the assay with CCRF-CEM, in the assay with SF-268, in the assay with HCT-116, with HT-29, with A549 and with DU-145 was > 100 µM (inactive) each time. Besides, the GI50 with Malme-3M, with OVCAR-4, with HCC 2998, in the assay on T47D, with RXF 393 and in the assay on NCI-H23 was > 100 µM (inactive) each time. For the same compound, the GI50 in the assay on KM12, in the assay on EKVX, with K562, with SK-MEL-2, in the assay with NCI-H460 and in the assay on UACC-62 was > 100 µM (inactive) each time. The GI50 in the assay on CAKI-1 and with BT-549 was > 100 µM (inactive) each time.
Take `C[C@H](C1CC(C)(O)C(C)(O)C(O)O1)[C@H]1CC[C@H]2[C@@H]3[C@@H]4O[C@@H]4[C@@]4(O)CC=CC(=O)[C@]4(C)[C@H]3CC[C@]12C` (stereo not given in full): the GI50 with CCRF-CEM was > 50 µM (inactive); in the assay on SF-268, 5.31 µM (inactive); with HCT-116, 36.9 µM (inactive); in the assay with HT-29 it was > 50 µM (inactive); in the assay on A549 it was > 50 µM (inactive); in the assay with DU-145, > 50 µM (inactive). Also, the GI50 in the assay on Malme-3M is 2.67 µM (inactive); in the assay on OVCAR-4, > 50 µM (inactive); in the assay on HCC 2998, > 50 µM (inactive); in the assay with T47D, > 50 µM (inactive); with RXF 393, 22.1 µM (inactive); with NCI-H23, > 50 µM (inactive). Also, the GI50 in the assay with KM12, in the assay on EKVX, with K562, with SK-MEL-2, with NCI-H460 and in the assay with UACC-62 was > 50 µM (inactive) in each case. Besides, the GI50 in the assay with CAKI-1 and in the assay with BT-549 was > 50 µM (inactive) throughout.
`CC(Cl)(CCC(Cl)C(C)(C)Cl)C(=O)CBr` (stereo not given): the GI50 in the assay with CCRF-CEM is 0.877 µM (active); with SF-268, 16.7 µM (inactive); in the assay with HCT-116, 7.05 µM (inactive); with HT-29, 13.1 µM (inactive); in the assay on A549 it was 19.5 µM (inactive); in the assay with DU-145, 19.5 µM (inactive). For the same compound, the GI50 in the assay on Malme-3M is 12.3 µM (inactive); in the assay on OVCAR-4 it was 2.73 µM (inactive); with HCC 2998, 17.1 µM (inactive); with T47D it was 17.9 µM (inactive); in the assay with RXF 393 it was 2.88 µM (inactive); in the assay on NCI-H23, 18.3 µM (inactive). The GI50 with KM12 is 15.6 µM (inactive); in the assay on EKVX, 16.4 µM (inactive); in the assay with K562, 2.88 µM (inactive); in the assay with SK-MEL-2, 14.7 µM (inactive); in the assay with NCI-H460 it was 15.9 µM (inactive); in the assay on UACC-62 it was 10.1 µM (inactive). For the same compound, the GI50 is 14 µM (inactive) in the assay with CAKI-1 and 14.2 µM (inactive) in the assay with BT-549.
Turning to `COC(=O)c1ccccc1CC1Cc2c(C)ccc(C)c2C1=O` (stereo not given), the GI50 in the assay on CCRF-CEM is 22.2 µM (inactive); in the assay with SF-268, 29.6 µM (inactive); with HCT-116 it was 16.5 µM (inactive); in the assay on HT-29, 14.9 µM (inactive); in the assay on A549, 40.2 µM (inactive); with DU-145, 50.5 µM (inactive). For the same compound, the GI50 in the assay on Malme-3M was 22.4 µM (inactive); in the assay with OVCAR-4 it was 25.9 µM (inactive); in the assay on HCC 2998, 36.9 µM (inactive); in the assay with T47D, 21.4 µM (inactive); in the assay with RXF 393, 21.4 µM (inactive); in the assay on NCI-H23 it was 15.4 µM (inactive). For the same compound, the GI50 is 23.6 µM (inactive) in the assay on KM12; 13.5 µM (inactive) with EKVX; 33.5 µM (inactive) with K562; 17.9 µM (inactive) in the assay on SK-MEL-2; 30.2 µM (inactive) in the assay on NCI-H460; 28.7 µM (inactive) in the assay on UACC-62. Moreover, the GI50 in the assay with CAKI-1 and in the assay on BT-549 was 34.5 µM (inactive) throughout.
For the compound `c1cc2cc(Cc3ccc4[nH]ccc4c3)ccc2[nH]1`, the GI50 in the assay with CCRF-CEM is 21.9 µM (inactive); with SF-268 it was 20.6 µM (inactive); with HCT-116, 17.6 µM (inactive); with HT-29, 16.8 µM (inactive); in the assay on A549, 16.2 µM (inactive); in the assay with DU-145 it was 22.9 µM (inactive). The GI50 is 15.2 µM (inactive) in the assay with Malme-3M; 7.74 µM (inactive) in the assay on OVCAR-4; 15.3 µM (inactive) with HCC 2998; 15.6 µM (inactive) in the assay with T47D; 19.6 µM (inactive) in the assay with RXF 393; 18.6 µM (inactive) in the assay on NCI-H23. The GI50 in the assay on KM12 is 14.2 µM (inactive); with EKVX, 15.3 µM (inactive); in the assay on K562, 10 µM (inactive); with SK-MEL-2, 22.4 µM (inactive); with NCI-H460 it was 15.8 µM (inactive); with UACC-62 it was 17.2 µM (inactive). Also, the figures for the GI50 with CAKI-1 and in the assay with BT-549 were 17.1 µM (inactive) and 19.7 µM (inactive), respectively.
